Source: article PMC7618104, “The GLP-1 analogue, exendin-4, improves bone material properties and strength through a central relay in ovariectomized mice” (American journal of physiology. Endocrinology and metabolism, 2025)

How the values were obtained:
[1] = test system: ovariectomized BALB/c mice; assay: Bone histomorphometry at the proximal tibia metaphysis; assay type: in vivo, mouse (BALB/cJRj, female); conditions: 28 days, n=8; for BFR/BS / MAR / MS/BS / O.Th / OS/BS / N.Oc/B.Pm / Oc.S/BS: mean ± SD; for N.Oc/B.Pm / Oc.S/BS: p<0.001 vs. OVX+Vehicle
Protocol: (§1) Eight animals were randomly assigned to each group.
All animals received intraperitoneal administration of calcein green (10 mg/kg) 10 days and 2 days before sacrifice. Animals were housed in social groups and maintained in a 12 h:12 h light/dark cycle. They had free access to water and food. At necropsy, blood was collected by intracardiac aspiration into EDTA-treated tubes. Blood samples were centrifuged at 13,000 g for 15 min, aliquoted and stored at -80°C until plasma levels of exendin-4 (#EK-070-94, Phoenix pharmaceuticals, Burlingame, CA) and calcitonin (NBP3-06734, Bio-Techne Ltd, Abingdon, UK) were measured according to the manufacturer’s protocol. Plasma levels of the bone remodeling markers C-terminal telopeptide of collagen type I (CTx-I – RatLaps, Immunodiagnostic Systems Ltd, Boldon, UK) and N-terminal propeptide of type I collagen (P1NP - Rat/mouse P1NP, Immunodiagnostic Systems Ltd) were measured according to the manufacturers’ recommendation. Right femurs were wrapped in saline-soaked gauze and frozen at -20°C until use. Right tibiae were fixed in ethanol-based fixative and stored at 4°C until use. No specific inclusion or exclusion criteria were applied for animal selection. […] Additionally, correct implantation of the cerebral perfusion cannulas for icv-administered animals was verified at necropsy. All animals meeting these criteria were included in the study.
After microCT, right tibias were embedded undecalcified in polymethylmethacrylate (pMMA) at 4°C as previously reported ([32]). Seven micron-thick sections were made with a sledge microtome (Polycut S, Leica, Nanterre, France) prior to histoenzymatic detection of TRAP or Goldner trichrome staining. Dynamic histomorphometry was perfomed after counterstaining the bone matrix with calcein blue. All histomorphometrical parameters were measured with an in-house written application developed in Matlab R2023b (The Mathworks, Natick, CA, RRID:SCR_001622) according to guidelines and nomenclature proposed by the American Society for Bone and Mineral Research ([33]).

[2] = test system: ovariectomized BALB/c mice; assay: Bone ECM material evaluation by infrared microspectroscopy, midshaft femur; assay type: in vivo, mouse (BALB/cJRj, female); conditions: 28 days, n=8
Protocol: as §1
Distal halves of the right femur were embedded undecalcified in pMMA after dehydration and infiltration. One micrometer-thick cross-section of the midshaft femur was cut with an ultramicrotome (Leica EM UC7, Leica microsystems, Nanterre, France) and deposited on BaF2 windows. Spectral analysis was performed, using a Bruker Hyperion 3000 infrared microscope coupled to a Bruker Vertex 70 spectrometer equipped with a single element mercury cadmium telluride (MCT) detector, between double calcein labels, as indicator of bone formation site. Mid-infrared spectra were recorded at a resolution of 4 cm^-1 (Spectral range 850–2000 cm^-1), with 32 accumulations in transmission mode. Background spectra were collected under identical conditions from the same BaF2 windows at the beginning and end of each experiment to ensure instrument stability. Post-processing was performed using Matlab R2023b (The Mathworks, Natick, CA) and included Mie scattering correction, pMMA subtraction, normalization and denoising (Savitzky-Golay algorithm, degree 2, span 9) prior to second derivative spectroscopy and curve fitting routines as previously reported in detail ([35]). A signal-to-noise ratio was computed in the region 1850-2000 cm^-1 to ensure proper denoising and quality of FTIR spectra for subsequent second derivative and curve fitting. Bone ECM material parameters were: Phosphate/Amide ratio (area ratio of v1,v3 phosphate and amide I); mineral crystallinity/maturity (XST, area ratio of subbands located at subbands ~1030 cm^-1 and ~1020 cm^-1), carbonate/phosphate ratio (area ratio of v2 carbonate and v1,v3 phosphate), and collagen maturity (intensity ratio of subbands located at 1660 cm^-1/1690 cm^-1) ([35]).

[3] = test system: mouse bone marrow-derived mesenchymal stem cell (BMMSC) cultures; assay: Bone marrow-derived mesenchymal stem cell osteogenic differentiation; assay type: cell-based, mouse (BALB/cJRj); conditions: 1 nM exendin-4, osteogenic medium, n = 5 independent experiments
Protocol: Femurs and tibias were isolated from 12-week-old female BALB/c mice (BALB/cJRj; Janvier Labs, Saint-Berthevin, France). Bones were rapidly dissected and cleared of soft tissue. The distal epiphyses were removed, and the marrow cavities were flushed with sterile PBS to collect bone marrow cells. Cells were suspended in growth medium composed of α-MEM supplemented with 10% fetal bovine serum, 100 U/mL penicillin-streptomycin, and 0.25 μL/mL Fungizone (Thermo Fisher Scientific), and seeded into 6-well plates at a density of 2.5 × 10^6 cells/well. Cultures were maintained at 37°C in a humidified incubator with 5% CO2. Cells remained undisturbed for 5 days to promote adherence. […]
On day 14, cells were washed with PBS and subjected to three freeze-thaw cycles. […] Enzymatic activity was measured using the fluorescent substrate 4-methylumbelliferyl phosphate (Sigma-Aldrich) as previously described ([38]).
On day 21, cells were fixed with 3.7% (w/v) formaldehyde in PBS for 10 min, rinsed with PBS, and stained with 1.5% (w/v) Alizarin Red S for 5 min. […] Bound dye was extracted using 10% acetic acid, neutralized with 10% ammonium hydroxide, and absorbance was measured at 550 nm using a spectrophotometer. […]

[4] = icv Ex-4 70 pmol/day, vs OVX+vehicle, p<0.001

Substance: exendin-4 [Ex-4]
- BFR/BS ([1]; OVX + Ex-4, icv 70 pmol/day): 0.282 ± 0.065 μm^3/μm^2/day
- MAR ([1]; OVX + Ex-4, icv 70 pmol/day): 2.17 ± 0.41 μm/day
- MS/BS ([1]; OVX + Ex-4, icv 70 pmol/day): 12.9 ± 1.2%
- O.Th ([1]; OVX + Ex-4, icv 70 pmol/day): 4.7 ± 0.7 μm
- OS/BS ([1]; OVX + Ex-4, icv 70 pmol/day): 3.0 ± 2.2%
- N.Oc/B.Pm ([1]; OVX + Ex-4, icv 70 pmol/day): 1.01 ± 0.27 ^*** mm^-1
- Oc.S/BS ([1]; OVX + Ex-4, icv 70 pmol/day): 0.96 ± 0.27 %
- BFR/BS ([1]; OVX + Ex-4, s.c. ~700 pmol/day): 0.301 ± 0.059 μm^3/μm^2/day
- MAR ([1]; OVX + Ex-4, s.c. ~700 pmol/day): 2.30 ± 0.35 μm/day
- MS/BS ([1]; OVX + Ex-4, s.c. ~700 pmol/day): 13.0 ± 1.3%
- O.Th ([1]; OVX + Ex-4, s.c. ~700 pmol/day): 4.8 ± 0.8 μm
- OS/BS ([1]; OVX + Ex-4, s.c. ~700 pmol/day): 2.4 ± 1.0%
- N.Oc/B.Pm ([1]; OVX + Ex-4, s.c. ~700 pmol/day): 1.11 ± 0.26
- Oc.S/BS ([1]; OVX + Ex-4, s.c. ~700 pmol/day): 0.99 ± 0.28 %
- change in number of osteoclasts [1, 4]: -51%
- change in osteoclast surfaces [1, 4]: -45%
- change in number of osteoclasts and osteoclast surfaces ([1]; s.c. Ex-4 ~700 pmol/day, vs OVX+vehicle, p<0.001): -41%
- increase in collagen maturity (1660/1690 cm^-1 subband ratio) ([2]; icv Ex-4 70 pmol/day, OVX, p<0.001): 22%
- bone mineral (material level) ([2]; s.c. Ex-4 ~700 pmol/day, OVX): not affected
- increase in collagen maturity (1660/1690 cm^-1 subband ratio) ([2]; s.c. Ex-4 ~700 pmol/day, vs OVX+vehicle, p=0.005): 18%
- alkaline phosphatase (ALP) activity ([3]; day 14): did not result in any significant increase
- extracellular matrix mineralization (Alizarin Red S) ([3]; day 21): did not result in any significant increase
